{
  "source": "patent US20080234232A1",
  "about": "“Methods and compositions for targeting AFAP” (priority 2007, published 2008)",
  "assay_type_in_all_cases": "cell-based, mouse",
  "key": {"[1]": {"system": "cSrc", "assay": "Western blot of phospho-Src family (Y416) after PMA treatment", "settings": "100 nM PMA 15 min", "experimental": "E) SYF, SYF/cSrc, and p85−/− were treated with 100 nM PMA for 15 minutes, 40 μg cell lysate resolved by SDS-PAGE and western blot analysis performed to evaluate phospho-Src family (Y416)(1:1000) and cSrc (1:500) as described in the methods section. Beta-actin (1:5000) was used as a loading control.\nAll cells were cultured to 70-80% confluence, serum-starved for 16 hours, and treated as described above. The cells were lysed and western analysis performed as previously described (Guappone, A. C. et. al., 1997). Membranes were probed using the following antibodies diluted in 1× Tris-buffered saline plus 0.1% Tween-20 (TBS-T) containing 5% nonfat milk, except were indicated: 1:10000 AFAP-110 pAb (F1), 1:1000 Phospho-Src family Tyrosine 416 (Cell Signal) in 5% BSA, 1:500 cSrc (clone N-16: Santa Cruz Biotechnology), 1:1000 p85α (BD Biosciences), 1:1000 p110α (BD Biosciences), 1:1000 PKCα (BD Biosciences), and 1:5000 β-actin in 1% BSA (Sigma)."}, "[2]": {"system": "cSrc", "assay": "Immunofluorescence: translocation of cSrc from the perinuclear region to the cell periphery", "settings": "100 nM PMA", "experimental": "FIG. 2: Inhibition of PI3K blocks translocation of cSrc from the perinuclear region of mouse embryo fibroblast in response to PMA treatment. SYF and p85−/− null cells were transiently transfected with cSrc and labeled for avian cSrc using EC10, an avian-specific monoclonal antibody (1:500). EC10 was visualized with anti-mouse Atexa Fluor 488 (false colored red for consistency). Cells treated with 100 nM PMA (panel b) induced translocation of cSrc to the cell periphery as indicated by the arrows. However, cells treated with 100 nM PMA in conjunction with 6 μM bisindolylmaleimide (panel c) or 10 μM LY (panel d) blocked the translocation of cSrc as indicated by the arrows. […] (n=nucleus) Bars represent 20 μM.\nSYF, SYF/cSrc, p85α+/+ and p85−/− cells were cultured in standard culture media. Transient transfections of SYF, SYF/cSrc, p85α+/+ cells for immunofluorescence were carried out using LipofectAMINE™ Reagent (Invitrogen) as per manufacturer's protocol. Briefly, Approximately 5.0-8.0×10^4 cells per well were transfected at 50-70% confluent on coverstips with 2-4 μg of plasmid DNA and incubated for 3-4 hours. Thirty-six hours after transfection, cells were serum starved for 12 hours, treated, and subsequently fixed and permeablized as previously described (Qian, Y. et. al., 1998). Cells were treated with a PKC activator, 100 nM PMA for 5 or 15 minutes or in combination with the following pretreatments; a PKC inhibitor, 6 μM bisindolylmaleimide [I] for six hours; or PI3K inhibitor, 10 μM LY294002 for six hours; 50 nM Wortmannin for 30 minutes; and/or a Src family inhibitor, 5 μM PP1 for six hours. For actin labeling, a 1:500 dilution of TRITC-phalloidin was used as labeled in the figures. Primary antibody concentrations used were diluted in 5% Bovine Serum Albumin (BSA) dissolved in 1× phosphate-buffered saline (PBS): EC10 mAb-1:500; Phospho-Src Family (Y416) pAb-1:250; Anti-PI-3,4,5-P3 mAb-1:100; Anti-AFAP-110 (F1)pAb-1:1000; Anti-cSrc pAb-1:500; Anti-flag-1:1000. […]"}, "[3]": {"system": "PI3K", "assay": "Immunofluorescence of Ptdlns-3,4,5-P3 production in SYF/cSrc cells", "settings": "100 nM PMA", "experimental": "SYF/cSrc cells were serum-starved for 24 hours. Cells stimulated with 10% serum (panels c-f), 100 nM PMA for 5 (panels g-h), or 15 minutes (panels i-j); as well as treated with 100 nM PMA in combination with 6 μM bisindolylmaleimide [I] (panels k-I) or 50 nM wortmannin (panels m-n). Cells treated with 100 nM PMA in combination with 5 μM PP1 (panel o-p) and Ptdlns-3,4,5-P3 levels evaluated. Cells were immunolabeled with a PI-3,4,5-P3-specific antibody (Echelon, Inc.;1:100) and TRITC-phalloidin (1:500). Secondary antibody for anti-PI-3,4,5-P3 (1:100) was Alexa IgM 647 anti-mouse (1:200). Bars represent 20 μm.\nSYF, SYF/cSrc, p85α+/+ and p85−/− cells were cultured in standard culture media. Transient transfections of SYF, SYF/cSrc, p85α+/+ cells for immunofluorescence were carried out using LipofectAMINE™ Reagent (Invitrogen) as per manufacturer's protocol. Briefly, Approximately 5.0-8.0×10^4 cells per well were transfected at 50-70% confluent on coverstips with 2-4 μg of plasmid DNA and incubated for 3-4 hours. Thirty-six hours after transfection, cells were serum starved for 12 hours, treated, and subsequently fixed and permeablized as previously described (Qian, Y. et. al., 1998). Cells were treated with a PKC activator, 100 nM PMA for 5 or 15 minutes or in combination with the following pretreatments; a PKC inhibitor, 6 μM bisindolylmaleimide [I] for six hours; or PI3K inhibitor, 10 μM LY294002 for six hours; 50 nM Wortmannin for 30 minutes; and/or a Src family inhibitor, 5 μM PP1 for six hours. For actin labeling, a 1:500 dilution of TRITC-phalloidin was used as labeled in the figures. Primary antibody concentrations used were diluted in 5% Bovine Serum Albumin (BSA) dissolved in 1× phosphate-buffered saline (PBS): EC10 mAb-1:500; Phospho-Src Family (Y416) pAb-1:250; Anti-PI-3,4,5-P3 mAb-1:100; Anti-AFAP-110 (F1)pAb-1:1000; Anti-cSrc pAb-1:500; Anti-flag-1:1000. All fluorescent secondary and phalloidin antibodies were diluted 1:200 in 5% BSA, and are labeled according to figure legends. Cells were washed and mounted on slides with Fluoromount-G (Fisher). A Zeiss LSM 510 confocal microscope was used to scan images of about 1 μM in thickness. To prevent cross-contamination between the different fluorochromes, each channel was imaged sequentially using the multitrack recording module before merging the images. For all figures, representative cells are shown (>100 cells examined per image shown).\nPtdlns-3,4,5-P3 production was measured using the anti-Ptdlns-3,4,5-P3 antibody (Echelon, inc.) for analysis by immunofluorescence and contrasted with stress filament integrity, measured using TRITC-phalloidin as previously described (Chen, R. et. al., 2002; Hama, H. et. al., 2004). SYF/cSrc cells were left untreated or treated with serum as controls for PI3K activation. […] In addition, SYF/cSrc cells were stimulated with PMA for 5 or 15 minutes."}, "[4]": {"system": "PI3K", "assay": "Surrogate markers for PI3K activation in the MEF cell system", "settings": "PMA treatment"}},
  "data": [
    {"smiles": "CCCCCCCCCCCCCC(=O)O[C@@H]1[C@@H](C)[C@@]2(O)[C@@H](C=C(CO)C[C@]3(O)C(=O)C(C)=C[C@@H]23)[C@@H]2C(C)(C)[C@]12OC(C)=O", "note": "[PMA, Phorbol 12-myristate 13-acetate]", "values": [
      {"measurement": "tyrosine416 phosphorylation of cSrc", "setting": "[1]; SYF/cSrc cells", "result": "induced"},
      {"measurement": "cSrc activation (western blot)", "setting": "[1]; mouse embryo fibroblasts lacking the p85 regulatory subunit", "result": "failed to induce"},
      {"measurement": "translocation of cSrc on PMA treatment", "setting": "[2]; SYF cells transfected with cSrc", "result": "induced cSrc to translocate from the perinuclear region to the cell periphery"},
      {"measurement": "translocation of cSrc on PMA treatment", "setting": "[2]; p85−/− cells", "result": "cSrc remained in the perinuclear region"},
      {"measurement": "Ptdlns-3,4,5-P3 production", "setting": "[3]; 5 minutes", "result": "able to induce"},
      {"measurement": "Ptdlns-3,4,5-P3 levels", "setting": "[3]; 15 minutes", "result": "consistently reduced"},
      {"measurement": "Akt phosphorylation on serine 473", "setting": "[4]", "result": "could induce an increase"},
      {"measurement": "stabilization of HIF-1α", "setting": "[4]", "result": "could induce"}
    ]}
  ]
}
